{
  "source": "patent US5912259A",
  "about": "“Method for treating and preventing neurodegenerative disorders by administering a thiazolidinone” (Warner-Lambert Company, priority 1998, dated 1999)",
  "key": {"[1]": {"system": "experimental autoimmune encephalomyelitis (EAE)", "assay": "Experimental autoimmune encephalomyelitis (EAE) in mice, Experiment 2", "assay_type": "in vivo, mouse, PL/J(F1)×SJL/J", "conditions": "sensitized", "description": "(§1) The thiazolidinone was evaluated in a mouse model of experimental autoimmune encephalomyelitis (EAE). The compound was administered orally to mice sensitized with a fragment of mouse myelin basic protein to induce EAE. Two experiments were conducted using the same protocol and neurological evaluations. Test animals were dosed for 21 days, beginning 4 hours before sensitization on Day 1. The effects of the thiazolidinone were compared to a control group of mice sensitized identically and dosed with vehicle alone. Neurological evaluations continued after cessation of drug treatment. The values reported in Tables 1 and 2 below include responses during drug treatment only.\n(§2) The thiazolidinone was homogenized manually with an aliquot of warm vehicle (0.5% hydroxypropyl methylcellulose with 0.2% Tween 80in water) in glass mortar tubes and homogenizing pestle. The smooth drug paste was gradually suspended in vehicle. Mice were dosed with drug and/or vehicle, […] in groups of ten (Experiment 1) or twenty (Experiment 2). Mice were dosed from Experiment Day 1 to Day 21. A sham-sensitized group was similarly dosed with vehicle or thiazolidinone 30 mg/kg (Experiment 1).\n(§3) Female mice, strain PL/J(F1)×SJL/J from Jackson Labs, were sensitized s.c. (0.05 cc×2) at the base of the tail with an emulsion containing equal parts of mouse myelin basic protein (MBP) fragment (amino acids 1-9 of the N-terminus of MBP) in saline and Difco Complete Freund's Adjuvant (CFA) fortified with heat killed desiccated Mycobacteria tuberculosis (MT). Each mouse received 300 μg of the MBP fragment (230 μg free base) and 200 μg MT followed by retrobulbar (i.v.) injection of 200 ng of B. pertussis toxin in 0.2 cc of saline. Forty-eight hours later, mice received a second injection of B. pertussis toxin. Mice in Experiment 1 were 8 to 9 weeks old; mice in Experiment 2 were 11 weeks old.\n(§4) Animals were weighed and evaluated for symptoms of EAE before sensitization and frequently for 21 days. EAE score: (0.5=slight limp tail, 1=limp tail or slow to right, 1.5=slight limp tail and slow to right, 2=paresis/mild paralysis or incontinence, 2.5=mild paralysis and slow to right or complete paralysis (one hind limb), 3=hind limb paralysis (both), 3.5=hind limb paralysis (both) and limp torso; 4=additional fore limb paralysis, 4.5=head movement only, 5=moribund, death after previous EAE symptoms). Evaluators were blinded as to drug treatments and previous behavioral scores.\n(§5) Disease symptoms were compared among groups for EAE severity, incidence, time to onset, cumulative score, deaths, and weight loss. Peak EAE score: the mean of highest score of each mouse in a group, independent of duration of symptoms; EAE incidence: the mean number of mice showing symptoms of EAE, defined as having EAE scores on any three consecutive days that total≥3.0. EAE deaths: An animal that died must have presented previous evidence of an EAE score greater than 0.5; EAE onset: the first of a 3-day series scoring a total of≥3.0. A Cumulative EAE score is calculated for each animal. A mean of all animals' cumulative score is then determined for each day. Maximum weight loss: the mean of the lowest weight for each animal in a group. (Note: The Cumulative EAE score and the Maximum weight loss can be influenced by death which eliminates severely diseased animals. The number of days that animals are scored also affects the cumulative score and can only be compared \"within-trial\"). Mice that die from dosing trauma or with no previous symptoms of EAE are deleted from the study. Experimental groups were assumed to be similar and were compared for statistical significance by a two-tailed t-test (p≤0.05).\nThe previous study was repeated with three larger groups of sensitized mice treated with (1) vehicle, (2) thiazolidinone at 10 mg/kg, or (3) thiazolidinone at 30 mg/kg."}, "[2]": {"system": "experimental autoimmune encephalomyelitis (EAE)", "description": "as §1, §2, §3, §4, §5"}, "cortical neurons": {"system": "cortical neurons", "assay": "Hypoxia/hypoglycemia-induced death of cortical neurons (LDH)", "assay_type": "cell-based, fetal Sprague-Dawley rat", "text": "Cerebral ischemia can be modeled in vitro by lowering oxygen and glucose in the media of cortical neurons. For this study, cortical neurons were isolated from fetal Sprague-Dawley rat brains on Day E18. Cortical hemispheres were sectioned, dissociated, and triturated in Hank's Balanced Salt Solution (HBSS) containing 0.1% trypsin. Cell concentration was adjusted to 620,000 cells/mL by the addition of Dulbecoo's Modified Eagles Medium (DME) and Ham's Nutrient mixture F-12 (F12) 1:1 supplemented with heat-inactivated 10% horse serum and 6% fetal calf serum. A 100 μL aliquot of cell suspension was pipetted into each individual well of a 96-well polyethylenimine-coated culture plate. After 4 days in an incubator at 37° C. in an atmosphere of 8% CO2,100 μL medium was drawn off from each well and replaced with 100 μL of DME/F12 with 10% horse serum to which 30 μg/mL 5-fluoro-2-deoxyuridine and 70 μg/mL uridine were added to prevent further division of the glial cells. Cultures were read every 2 to 3 days thereafter by half volume (100 μL) replacement with DME/F12 (10% horse serum).\nCells were exposed to an hypoxic/hypoglycemic environment (91% N2 /[…] /1% O2, 1 mM glucose, 37° C.) for varying times in 50 μL HBSS. Cultures were then returned to the normoxic incubator (21% O2 /8% CO2,25 mM glucose) and quantitative assessment of cell death made 24 hours later by measurement of the intracellular enzyme lactate dehydrogenase (LDH). Cells were exposed for 1 hour to the thiazolidinone or other drugs prior to the induction of hypoxia/hypoglycemia."}, "[3]": {"conditions": "sensitized, 30 mg oral, (a) deaths designated due to EAE"}, "[4]": {"conditions": "sensitized, 30 mg oral, (b) deaths due to unknown causes removed"}},
  "note": "Like-named read-outs stand apart in the source and are kept apart here.",
  "data": [
    {"smiles": "CC(C)(C)c1cc(/C=C2\\SC(N)=NC2=O)cc(C(C)(C)C)c1O", "note": "[CI-1004, (Z)-5-[[3,5-bis(1,1-dimethylethyl)-4-hydroxyphenyl]methylene]-2-imino-4-thiazolidinone methanesulfonate]", "values": [
      {"measurement": "Cumulative Score", "setting": "[1]; 10 mg/kg oral", "result": "31.3 ± 3.6"},
      {"measurement": "Deaths", "setting": "[1]; 10 mg/kg oral", "result": "10/20"},
      {"measurement": "EAE Incidence", "setting": "[1]; 10 mg/kg oral", "result": "19/19"},
      {"measurement": "EAE Onset", "setting": "[1]; 10 mg/kg oral", "result": 11.8, "unit": "days"},
      {"measurement": "EAE Peak Score", "setting": "[1]; 10 mg/kg oral", "result": "4.5 ± 0.7"},
      {"measurement": "Cumulative Score", "setting": "[1]; 30 mg/kg oral", "result": "28.9 ± 2.7"},
      {"measurement": "Deaths", "setting": "[1]; 30 mg/kg oral", "result": "8/20"},
      {"measurement": "EAE Incidence", "setting": "[1]; 30 mg/kg oral", "result": "20/20"},
      {"measurement": "EAE Onset", "setting": "[1]; 30 mg/kg oral", "result": 12.4, "unit": "days"},
      {"measurement": "EAE Peak Score", "setting": "[1]; 30 mg/kg oral", "result": "4.3 ± 0.2"},
      {"measurement": "daily EAE score or overall EAE responses", "setting": "[1]; 10 or 30 mg/kg", "result": "no effect on the daily EAE score or overall EAE responses"},
      {"measurement": "deaths at ≤Day 10", "setting": "[2]; mouse, in vivo, 30 mg/kg", "result": "three deaths"},
      {"measurement": "Cumulative Score", "setting": "[2]; sensitized, 3 mg oral", "result": "20.3 ± 1.7"},
      {"measurement": "Deaths", "setting": "[2]; sensitized, 3 mg oral", "result": "2/10"},
      {"measurement": "EAE Incidence", "setting": "[2]; sensitized, 3 mg oral", "result": "10/10"},
      {"measurement": "EAE Onset", "setting": "[2]; sensitized, 3 mg oral", "result": "12.2 ± 0.3", "unit": "days"},
      {"measurement": "EAE Peak Score", "setting": "[2]; sensitized, 3 mg oral", "result": "3.7 ± 0.3"},
      {"measurement": "Cumulative Score", "setting": "[2]; sensitized, 10 mg oral", "result": "10.9 ± 1.7"},
      {"measurement": "Deaths", "setting": "[2]; sensitized, 10 mg oral", "result": "2/10"},
      {"measurement": "EAE Incidence", "setting": "[2]; sensitized, 10 mg oral", "result": "7/10"},
      {"measurement": "EAE Onset", "setting": "[2]; sensitized, 10 mg oral", "result": "12.1 ± 1.5", "unit": "days"},
      {"measurement": "EAE Peak Score", "setting": "[2]; sensitized, 10 mg oral", "result": "3.0 ± 0.6"},
      {"measurement": "daily EAE scores, incidence, cumulative EAE scores, weight loss", "setting": "[2]; sensitized, 10 mg/kg", "result": "showed a suggestion of inhibition of daily EAE scores, reduced incidence, cumulative EAE scores, and weight loss"},
      {"measurement": "Cumulative Score", "setting": "[2]; [3]", "result": "10.9 ± 3.4"},
      {"measurement": "Deaths", "setting": "[2]; [3]", "result": "3/9"},
      {"measurement": "EAE Incidence", "setting": "[2]; [3]", "result": "7/9"},
      {"measurement": "EAE Onset", "setting": "[2]; [3]", "result": "12.7 ± 2.2", "unit": "days"},
      {"measurement": "EAE Peak Score", "setting": "[2]; [3]", "result": "3.1 ± 0.6"},
      {"measurement": "Cumulative Score", "setting": "[2]; [4]", "result": "9.4 ± 3.4"},
      {"measurement": "Deaths", "setting": "[2]; [4]", "result": "0/6"},
      {"measurement": "EAE Incidence", "setting": "[2]; [4]", "result": "4/6"},
      {"measurement": "EAE Onset", "setting": "[2]; [4]", "result": "16.0 ± 2.1", "unit": "days"},
      {"measurement": "EAE Peak Score", "setting": "[2]; sensitized, 30 mg oral, (b) deaths due to unknown causes removed, p < 0.05", "result": "2.1 ± 0.6"},
      {"measurement": "overall EAE symptoms", "setting": "[2]; sensitized, 30 mg/kg, Method A", "result": "no significant reduction in overall EAE symptoms"},
      {"measurement": "peak EAE score and weight loss", "setting": "[2]; sensitized, 30 mg/kg, Method B", "result": "significant reduction in the peak EAE score and weight loss"},
      {"measurement": "daily EAE scores Days 10 to 21", "setting": "[2]; sensitized, 30 mg/kg, Methods A and B", "result": "tendency to reduced daily EAE scores from Days 10 to 21, although a statistically significant reduction was seen only on Day 15 (p≤0.05)"},
      {"measurement": "EAE scores versus vehicle controls to Day 21", "setting": "[2]; sensitized, 3 or 10 mg/kg", "result": "did not show significantly reduced EAE scores"},
      {"measurement": "Cumulative Score", "setting": "[2]; sham-sensitized, 30 mg oral", "result": "1.4 ± 0.6"},
      {"measurement": "Deaths", "setting": "[2]; sham-sensitized, 30 mg oral", "result": "0/9"},
      {"measurement": "EAE Incidence", "setting": "[2]; sham-sensitized, 30 mg oral", "result": "0/9"},
      {"measurement": "EAE Peak Score", "setting": "[2]; sham-sensitized, 30 mg oral", "result": "0.8 ± 0"},
      {"measurement": "EAE symptoms and deaths in sham-sensitized mice", "setting": "[2]; sham-sensitized, 30 mg/kg", "result": "showed little symptoms of disease and no deaths"},
      {"measurement": "duration of hypoxia/hypoglycemia before loss of viability", "setting": "cortical neurons; 1 μM", "result": "no effect"},
      {"measurement": "duration of hypoxia/hypoglycemia before loss of viability", "setting": "cortical neurons; 10 μM", "result": "significantly increased the duration of hypoxia/hypoglycemia before the cells lost viability"},
      {"measurement": "neuronal death after hypoxia/hypoglycemia", "setting": "cortical neurons; 10 μM, 4 hours of exposure, control approximately 50% killed", "result": "no neuronal death"}
    ]}
  ]
}
